Data: PubChem BioAssay (NCI)
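Results reflect a 48-hour exposure of cells in 96-well plates to compound at five concentrations. GI50 is the concentration that inhibits growth by half. Definition used: TGI = concentration required for complete inhibition of growth.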

What was measured:
Assay in all cases: DTP human tumour cell line panel, 48 h
SK-MEL-5 melanoma = test system: SK-MEL-5 melanoma
MALME-3M melanoma = test system: MALME-3M melanoma
RPMI-8226 leukemia = test system: RPMI-8226 leukemia
HOP-62 NSCLC = test system: HOP-62 NSCLC
HCT-15 colon = test system: HCT-15 colon
HS 578T breast = test system: HS 578T breast
SR leukemia = test system: SR leukemia
SK-OV-3 ovarian = test system: SK-OV-3 ovarian
A549 NSCLC = test system: A549 NSCLC
K-562 leukemia = test system: K-562 leukemia
SF-295 CNS = test system: SF-295 CNS
NCI-H226 lung = test system: NCI-H226 lung
NCI-H23 lung = test system: NCI-H23 lung
SN12C renal = test system: SN12C renal
UACC-257 melanoma = test system: UACC-257 melanoma
SW-620 colon = test system: SW-620 colon
HOP-92 NSCLC = test system: HOP-92 NSCLC
KM12 colon = test system: KM12 colon
ACHN renal = test system: ACHN renal
M14 melanoma = test system: M14 melanoma
MCF7 breast = test system: MCF7 breast
SK-MEL-2 melanoma = test system: SK-MEL-2 melanoma
HCC-2998 colon = test system: HCC-2998 colon
NCI/ADR-RES ovarian = test system: NCI/ADR-RES ovarian
SNB-19 CNS = test system: SNB-19 CNS
CAKI-1 renal = test system: CAKI-1 renal
MDA-MB-231 breast = test system: MDA-MB-231 breast
MOLT-4 leukemia = test system: MOLT-4 leukemia
PC-3 prostate = test system: PC-3 prostate
NCI-H522 lung = test system: NCI-H522 lung

Which TGI (SK-MEL-5 melanoma) does the source give for `COc1cc2c(c(OC)c1OC)C(=O)CC(c1cccc(NC(=O)c3cc(NC(=O)[C@H](C)N)ccc3Cl)c1)O2` (some centres undefined) here?
Its TGI is 29.4 µM.

And the GI50 (MALME-3M melanoma)?
The GI50 was 14.2 µM.

What about the TGI (MALME-3M melanoma) of the same molecule?
The TGI was 27.7 µM.

What about the GI50 (RPMI-8226 leukemia) of the same molecule?
Its GI50 is 7.29 µM.

What about the TGI (RPMI-8226 leukemia) of the same molecule?
Its TGI is 51.7 µM.

And the GI50 (HOP-62 NSCLC)?
The GI50 was 15.1 µM.

And the TGI (HOP-62 NSCLC)?
Its TGI is 30.6 µM.

And the GI50 (HCT-15 colon)?
Its GI50 is 12 µM.

And the TGI (HCT-15 colon)?
Its TGI is 26.9 µM.

What about the GI50 (HS 578T breast) of the same molecule?
The GI50 was 20 µM.

What about the TGI (HS 578T breast) of the same molecule?
Its TGI is 59.3 µM.

And the GI50 (SR leukemia)?
The GI50 was 5.45 µM.

And the TGI (SR leukemia)?
The TGI was 39.2 µM.

And the GI50 (SK-OV-3 ovarian)?
Its GI50 is 18.3 µM.

What about the TGI (SK-OV-3 ovarian) of the same molecule?
Its TGI is 42.2 µM.

And the GI50 (A549 NSCLC)?
Its GI50 is 15.9 µM.

And the TGI (A549 NSCLC)?
Its TGI is 33.3 µM.

And the GI50 (K-562 leukemia)?
The GI50 was 7.31 µM.

And the TGI (K-562 leukemia)?
Its TGI is 91.9 µM.

What about the GI50 (SF-295 CNS) of the same molecule?
Its GI50 is 16.3 µM.

What about the TGI (SF-295 CNS) of the same molecule?
Its TGI is 29.9 µM.

And the GI50 (NCI-H226 lung)?
The GI50 was 16.8 µM.

And the TGI (NCI-H226 lung)?
Its TGI is 38.6 µM.

And the GI50 (NCI-H23 lung)?
Its GI50 is 15.6 µM.

And the TGI (NCI-H23 lung)?
The TGI was 31.2 µM.

And the GI50 (SN12C renal)?
Its GI50 is 14.1 µM.

And the TGI (SN12C renal)?
Its TGI is 30.9 µM.

What about the GI50 (UACC-257 melanoma) of the same molecule?
Its GI50 is 14.4 µM.

What about the TGI (UACC-257 melanoma) of the same molecule?
The TGI was 29.5 µM.

And the GI50 (SW-620 colon)?
Its GI50 is 15.7 µM.

What about the TGI (SW-620 colon) of the same molecule?
Its TGI is 30.2 µM.

And the GI50 (HOP-92 NSCLC)?
The GI50 was 14.5 µM.

And the TGI (HOP-92 NSCLC)?
Its TGI is 48.9 µM.

What about the GI50 (KM12 colon) of the same molecule?
Its GI50 is 19.3 µM.

What about the TGI (KM12 colon) of the same molecule?
The TGI was 37.9 µM.

What about the GI50 (ACHN renal) of the same molecule?
Its GI50 is 15.9 µM.

And the TGI (ACHN renal)?
Its TGI is 31 µM.

What about the GI50 (M14 melanoma) of the same molecule?
The GI50 was 15.5 µM.

What about the TGI (M14 melanoma) of the same molecule?
Its TGI is 32.6 µM.

What about the GI50 (MCF7 breast) of the same molecule?
The GI50 was 12.9 µM.

And the TGI (MCF7 breast)?
Its TGI is 26.8 µM.

And the GI50 (SK-MEL-2 melanoma)?
The GI50 was 14.8 µM.

What about the TGI (SK-MEL-2 melanoma) of the same molecule?
The TGI was 33.2 µM.

What about the GI50 (HCC-2998 colon) of the same molecule?
The GI50 was 16.9 µM.

What about the TGI (HCC-2998 colon) of the same molecule?
The TGI was 31.3 µM.

And the GI50 (NCI/ADR-RES ovarian)?
Its GI50 is 16.2 µM.

And the TGI (NCI/ADR-RES ovarian)?
The TGI was 47 µM.

What about the GI50 (SNB-19 CNS) of the same molecule?
The GI50 was 15.8 µM.

What about the TGI (SNB-19 CNS) of the same molecule?
The TGI was 29.2 µM.

And the GI50 (CAKI-1 renal)?
The GI50 was 32.7 µM.

What about the TGI (CAKI-1 renal) of the same molecule?
Its TGI is greater than 100 µM.

What about the GI50 (MDA-MB-231 breast) of the same molecule?
The GI50 was 14.6 µM.

And the TGI (MDA-MB-231 breast)?
Its TGI is 28.5 µM.

What about the GI50 (MOLT-4 leukemia) of the same molecule?
The GI50 was 11 µM.

What about the TGI (MOLT-4 leukemia) of the same molecule?
The TGI was 34.6 µM.

What about the GI50 (PC-3 prostate) of the same molecule?
Its GI50 is 17.2 µM.

And the TGI (PC-3 prostate)?
The TGI was 69.5 µM.

And the GI50 (NCI-H522 lung)?
The GI50 was 11.3 µM.

And the TGI (NCI-H522 lung)?
Its TGI is 26 µM.
